Results as given in patent US12018021B2 (UCB Biopharma SRL, priority 2018, dated 2024).

target: IgE-Tb / sFcεRIα-Y131A-AF488 (Homo sapiens, UniProt P01854, N146Q/N252Q); experiment: IgE-Tb / sFcεRIα-Y131A-AF488 FRET assay (protocol for examples 234 to 501); assay type: binding; settings: examples 234 to 501: compound with IgE-Tb 30 minutes before sFcεRIα-Y131A-AF488, incubated 18 hours at room temperature; read-out: Y131A FRET IC50 range
Summary of the method: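 Compounds (10-point 3-fold series, top usually 10 μM, 2% DMSO) preincubated 30 min with 5 nM IgE-Tb, then 25 nM sFcεRIα-Y131A-AF488 added; 18 h at room temperature in the dark. TR-FRET ratio 520/490 nm after 337 nm excitation, background-subtracted; IC50 by four-parameter logistic fit.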

Sequence of IgE-Tb / sFcεRIα-Y131A-AF488 (P01854 whole entry N146Q/N252Q): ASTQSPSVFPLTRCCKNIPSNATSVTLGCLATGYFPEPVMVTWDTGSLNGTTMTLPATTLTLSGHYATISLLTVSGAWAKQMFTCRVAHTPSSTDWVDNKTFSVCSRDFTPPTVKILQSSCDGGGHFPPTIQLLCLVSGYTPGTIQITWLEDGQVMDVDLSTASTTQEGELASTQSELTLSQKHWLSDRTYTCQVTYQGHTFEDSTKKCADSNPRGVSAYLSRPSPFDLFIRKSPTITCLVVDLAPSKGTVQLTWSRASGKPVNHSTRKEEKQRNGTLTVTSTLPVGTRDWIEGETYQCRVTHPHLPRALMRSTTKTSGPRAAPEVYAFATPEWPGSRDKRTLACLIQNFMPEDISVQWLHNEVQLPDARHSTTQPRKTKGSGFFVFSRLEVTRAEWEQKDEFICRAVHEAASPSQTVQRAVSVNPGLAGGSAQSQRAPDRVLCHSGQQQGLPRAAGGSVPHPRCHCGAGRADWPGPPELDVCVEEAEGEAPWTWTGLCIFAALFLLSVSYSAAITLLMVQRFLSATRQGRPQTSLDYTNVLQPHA

| SMILES | IC50 [nM] |
| --- | --- |
| Cn1nc(C(F)(F)F)cc1Nc1nncn1[C@H]1CCc2sc(NC(=O)[C@H]3C[C@H]3F)c(C(=O)N[C@H]3C[C@H](F)C3)c2C1 [Example 402, (5S)—N-(trans-3-fluorocyclobutyl)-2-[[(1R,2R)-2-fluorocyclopropanecarbonyl]amino]-5-[3-[[2-methyl-5-(trifluoromethyl)pyrazol-3-yl]amino]-1,2,4-triazol-4-yl]-4,5,6,7-tetrahydro-1-benzothiophene-3-carboxamide] | < 1000 |
| [2H]C([2H])([2H])n1nc(C(F)F)cc1Nc1nncn1[C@H]1CCc2sc(NC(=O)C3CC3)c(C(=O)NCC3CC3)c2C1 [Example 403, (5S)-2-(cyclopropanecarbonylamino)-N-(cyclopropylmethyl)-5-[3-[[5-(difluoromethyl)-2-(trideuteriomethyl)pyrazol-3-yl]amino]-1,2,4-triazol-4-yl]-4,5,6,7-tetrahydrobenzothiophene-3-carboxamide] | < 1000 |
| Cn1nc(C(F)F)cc1Nc1nncn1[C@H]1CCc2sc(NC(=O)[C@H]3CC34CC4)c(C(=O)NC[C@H]3C[C@H](F)C3)c2C1 [Example 404, (5S)-5-[3-[[5-(Difluoromethyl)-2-methylpyrazol-3-yl]amino]-1,2,4-triazol-4-yl]-N-[trans-(3-fluorocyclobutyl)methyl]-2-[[(2S)-spiro[2.2]pentane-2-carbonyl]amino]-4,5,6,7-tetrahydro-1-benzothiophene-3-carboxamide] | < 1000 |
| Cn1nc(C(F)F)cc1Nc1nncn1[C@H]1CCc2sc(NC(=O)[C@H]3CC34CC4)c(C(=O)N[C@H]3C[C@H](F)C3)c2C1 [Example 405, (5S)-5-[3-[[5-(Difluoromethyl)-2-methylpyrazol-3-yl]amino]-1,2,4-triazol-4-yl]-N-(trans-3-fluorocyclobutyl)-2-[[(2S)-spiro[2.2]pentane-2-carbonyl]amino]-4,5,6,7-tetrahydro-1-benzothiophene-3-carboxamide] | < 1000 |
| Cn1nc(C(F)F)cc1Nc1nncn1[C@H]1CCc2sc(NC(=O)[C@H]3CC34CC4)c(C(=O)NC3CC(F)(F)C3)c2C1 [Example 406, (5S)—N-(3,3-Difluorocyclobutyl)-5-[3-[[5-(difluoromethyl)-2-methylpyrazol-3-yl]amino]-1,2,4-triazol-4-yl]-2-[[(2S)-spiro[2.2]pentane-2-carbonyl]amino]-4,5,6,7-tetrahydro-1-benzothiophene-3-carboxamide] | < 1000 |
| Cn1nc(C(F)F)cc1Nc1nncn1[C@H]1CCc2sc(NC(=O)[C@H]3CC34CC4)c(C(=O)NCC3CC(F)(F)C3)c2C1 [Example 407, (5S)—N-[(3,3-Difluorocyclobutyl)methyl]-5-[3-[[5-(difluoromethyl)-2-methylpyrazol-3-yl]amino]-1,2,4-triazol-4-yl]-2-[[(2S)-spiro[2,2]pentane-2-carbonyl]amino]-4,5,6,7-tetrahydro-1-benzothiophene-3-carboxamide] | < 1000 |
| Cn1nc(C(F)F)cc1Nc1nncn1[C@H]1CCc2sc(NC(=O)[C@H]3CC34CC4)c(C(=O)NC[C@H]3C[C@H]3F)c2C1 [Example 412, (5S)-5-[3-[[5-(Difluoromethyl)-2-methylpyrazol-3-yl]amino]-1,2,4-triazol-4-yl]-N-[[(1R,2R)-2-fluorocyclopropyl]methyl]-2-[[(2S)-spiro[2.2]pentane-2-carbonyl]amino]-4,5,6,7-tetrahydro-1-benzothiophene-3-carboxamide] | < 1000 |
| Cn1nc(C(F)F)cc1Nc1nncn1[C@H]1CCc2sc(NC(=O)[C@H]3CC34CC4)c(C(=O)NC[C@H]3C[C@@H]3F)c2C1 [Example 413, (5S)-5-[3-[[5-(Difluoromethyl)-2-methylpyrazol-3-yl]amino]-1,2,4-triazo-4-yl]-N-[[(1R,2S)-2-fluorocyclopropyl]methyl]-2-[[(25)-spiro[2.2]pentane-2-carbonyl]amino]-4,5,6,7-tetrahydro-1-benzothiophene-3-carboxamide] | < 1000 |
| Cn1nc(C(F)F)cc1Nc1nncn1[C@H]1CCc2sc(NC(=O)[C@H]3CC34CC4)c(C(=O)N[C@H]3CC34CC4)c2C1 [Example 414, (5S)-5-[3-[[5-(difluoromethyl)-2-methyl-pyrazol-3-yl]amino]-1,2,4-triazol-4-yl]-2-[[(2S)-spiro[2.2]pentane-2-carbonyl]amino]-N-[(25)-spiro[2.2]pentan-2-yl]-4,5,6,7-tetrahydrobenzothiophene-3-carboxamide] | < 1000 |
| Cn1nc(C(F)F)cc1Nc1nncn1[C@H]1CCc2sc(NC(=O)[C@H]3CC34CC4)c(C(=O)N[C@@H]3CC34CC4)c2C1 [Example 415, (5S)-5-[3-[[5-(difluoromethyl)-2-methyl-pyrazol-3-yl]amino]-1,2,4-triazol-4-yl]-2-[[(2S)-spiro[2.2]pentane-2-carbonyl]amino]-N-[(2R)-spiro[2.2]pentan-2-yl]-4,5,6,7-tetrahydrobenzothiophene-3-carboxamide] | < 1000 |
| Cn1nc(C(F)F)cc1Nc1nncn1[C@H]1CCc2sc(NC(=O)[C@H]3CC34CC4)c(C(=O)NCC3CC3)c2C1 [Example 416, (5S)—N-(Cyclopropylmethyl)-5-[3-[[5-(difluoromethyl)-2-methyl-pyrazol-3-yl]amino]-1,2,4-triazol-4-yl]-2-[[(2S)-spiro[2.2]pentane-2-carbonyl]amino]-4,5,6,7-tetrahydrobenzothiophene-3-carboxamide] | < 1000 |
| Cn1nc(C#N)cc1Nc1nncn1[C@H]1CCc2sc(NC(=O)C3CC3)c(C(=O)NCC3CC3)c2C1 [Example 418, (5S)-5-[3-[(5-Cyano-2-methyl-pyrazol-3-yl)amino]-1,2,4-triazol-4-yl]-2-(cyclopropanecarbonylamino)-N-(cyclopropylmethyl)-4,5,6,7-tetrahydrobenzothiophene-3-carboxamide] | < 1000 |
| O=C(NCC1CC1)c1c(NC(=O)C2CC2)sc2c1C[C@@H](n1cnnc1Nc1ccc3c(c1)OC(F)(F)O3)CC2 [Example 419, (5S)-2-(Cyclopropanecarbonylamino)-N-(cyclopropylmethyl)-5-[3-[(2,2-difluoro-1,3-benzodioxol-5-yl)amino]-1,2,4-triazol-4-yl]-4,5,6,7-tetrahydrobenzothiophene-3-carboxamide] | < 1000 |
| Cn1nc(C(F)F)cc1Nc1nncn1[C@H]1CCc2sc(NC(=O)[C@H]3CC34CC4)c(C(=O)NC[C@@H]3C[C@@H]3F)c2C1 [Example 420, (5S)-5-[3-[[5-(Difluoromethyl)-2-methyl-pyrazol-3-yl]amino]-1,2,4-triazol-4-yl]-N-[[(1S,2S)-2-fluorocyclopropyl]methyl]-2-[[(2S)-spiro[2.2]pentane-2-carbonyl]amino]-4,5,6,7-tetrahydrobenzothiophene-3-carboxamide] | < 1000 |
| O=C(NCC1CC1)c1c(NC(=O)C2CC2)sc2c1C[C@@H](n1cnnc1Nc1ccc(C(F)F)nc1)CC2 [Example 423, (5S)-2-(cyclopropanecarbonylamino)-N-(cyclopropylmethyl)-5-[3-[[6-(difluoromethyl)-3-pyridyl]amino]-1,2,4-triazol-4-yl]-4,5,6,7-tetrahydrobenzothiophene-3-carboxamide] | < 1000 |
| Cc1nc(F)ccc1Nc1nncn1[C@H]1CCc2sc(NC(=O)C3CC3)c(C(=O)NCC3CC3)c2C1 [Example 424, (5S)-2-(cyclopropanecarbonylamino)-N-(cyclopropylmethyl)-5-[3-[(6-fluoro-2-methyl-3-pyridyl)amino]-1,2,4-triazol-4-yl]-4,5,6,7-tetrahydrobenzothiophene-3-carboxamide] | < 1000 |
